Measurements as given in paper PMC4698665, “Functional Analysis of Esterase TCE2 Gene from Tetranychus cinnabarinus (Boisduval) involved in Acaricide Resistance” (Scientific Reports, 2016).

Columns and labels:
recombinant TCE2 [1] = target: T1, recombinant TCE2 (Tetranychus cinnabarinus, UniProt B3TFG7); test: Dixon plot, colorimetric esterase assay (Fast blue B); assay type: biochemical
T1 construct: pCold II (vector His tag), E. coli BL21(DE3), Ni-NTA purified; about 63 kDa
T1 sequence (B3TFG7 24-560): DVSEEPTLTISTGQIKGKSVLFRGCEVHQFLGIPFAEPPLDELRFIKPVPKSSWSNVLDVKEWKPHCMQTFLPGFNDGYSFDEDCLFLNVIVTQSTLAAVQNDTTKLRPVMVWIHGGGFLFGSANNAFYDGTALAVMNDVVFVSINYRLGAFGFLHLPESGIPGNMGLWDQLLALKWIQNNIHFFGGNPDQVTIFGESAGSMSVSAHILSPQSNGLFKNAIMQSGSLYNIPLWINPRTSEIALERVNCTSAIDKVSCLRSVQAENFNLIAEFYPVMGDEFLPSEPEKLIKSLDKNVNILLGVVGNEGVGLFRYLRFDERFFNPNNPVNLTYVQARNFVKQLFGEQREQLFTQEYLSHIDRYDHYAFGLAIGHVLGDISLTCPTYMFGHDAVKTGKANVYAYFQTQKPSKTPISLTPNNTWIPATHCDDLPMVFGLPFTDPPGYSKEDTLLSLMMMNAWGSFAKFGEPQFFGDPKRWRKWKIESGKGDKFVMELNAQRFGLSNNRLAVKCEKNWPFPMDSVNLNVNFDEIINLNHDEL

recombinant TCE2 [2] = target: T1, recombinant TCE2; test: colorimetric esterase inhibition assay, microplate (Fast blue B, […] nm); assay type: biochemical
purified protein = substrate: CC(=O)Oc1cccc2ccccc12; test: purified protein; assay type: biochemical, Tetranychus cinnabarinus; details: 0.04 M PBS pH 7.4, 30 °C, 10 min

`CC1(C)C(C(=O)OC(C#N)c2cccc(Oc3ccccc3)c2)C1(C)C` (stereo not drawn) [fenpropathrin] showed a Ki (recombinant TCE2 [1]) of 356 ± 35.4 µM and an IC50 (recombinant TCE2 [2]) of 235 ± 15.3 µM.

`COCCOC(=O)C(C#N)(C(=O)c1ccccc1C(F)(F)F)c1ccc(C(C)(C)C)cc1` (stereo not drawn) [cyflumetofen] was tested, and the Ki (recombinant TCE2 [1]) was 182 ± 17.7 µM and the IC50 (recombinant TCE2 [2]) was 129 ± 12.7 µM.

B1: recombinant TCE2 (Tetranychus cinnabarinus) (protein)
chain: DVSEEPTLTISTGQIKGKSVLFRGCEVHQFLGIPFAEPPLDELRFIKPVPKSSWSNVLDVKEWKPHCMQTFLPGFNDGYSFDEDCLFLNVIVTQSTLAAVQNDTTKLRPVMVWIHGGGFLFGSANNAFYDGTALAVMNDVVFVSINYRLGAFGFLHLPESGIPGNMGLWDQLLALKWIQNNIHFFGGNPDQVTIFGESAGSMSVSAHILSPQSNGLFKNAIMQSGSLYNIPLWINPRTSEIALERVNCTSAIDKVSCLRSVQAENFNLIAEFYPVMGDEFLPSEPEKLIKSLDKNVNILLGVVGNEGVGLFRYLRFDERFFNPNNPVNLTYVQARNFVKQLFGEQREQLFTQEYLSHIDRYDHYAFGLAIGHVLGDISLTCPTYMFGHDAVKTGKANVYAYFQTQKPSKTPISLTPNNTWIPATHCDDLPMVFGLPFTDPPGYSKEDTLLSLMMMNAWGSFAKFGEPQFFGDPKRWRKWKIESGKGDKFVMELNAQRFGLSNNRLAVKCEKNWPFPMDSVNLNVNFDEIINLNHDEL
notes: pCold II (vector His tag), E. coli BL21(DE3), Ni-NTA purified; about 63 kDa
In the case of B1, the Km (purified protein) is reported as 30.5 ± 5.9 µM and the Vmax (purified protein) is reported as 0.448 µmol/min/mg.
